Measurements taken from article PMC8699473, “An Easily Expandable Multi-Drug LC-MS Assay for the Simultaneous Quantification of 57 Oral Antitumor Drugs in Human Plasma” (Cancers, 2021).
Where two headings read alike, the source gives them in different places.

Assays:
[1] = Freeze-thaw stability in spiked pooled human plasma; type: physicochemical
[2] = Autosampler stability of ready for injection samples; type: physicochemical, human
[3] = human
[4] = human; remark: listed apart in the source
[5] = set-up: method as in supplement references [1-55] as printed per drug; details: minimum steady-state blood plasma concentration after multiple dose administration; ref supplement references [1-55] per drug; cited from earlier work
[6] = Long-term stability in spiked pooled human plasma
[7] = Short-term stability in spiked pooled human plasma (bench-top, 4 °C, 56 °C)

Cc1ccc(C(=O)Nc2ccc(CN3CCN(C)CC3)c(C(F)(F)F)c2)cc1C#Cc1cnc2cccnn12 [Ponatinib]
Freeze-Thaw Accuracy [%] [1]: 101.5% | Freeze-Thaw Accuracy [%] ([1]; validation standard 2xLLOV): 101.8% | Freeze-Thaw Accuracy [%] ([1]; validation standard MOV): 99.3% | Freeze-Thaw Accuracy [%] ([1]; validation standard ULOV): 100.2% | Autosampler (24h, 4°C) Accuracy [%] [2]: 104.7% | Autosampler (72h, 4°C) Accuracy [%] [2]: 104.7% | Autosampler (24h, 4°C) Accuracy [%] ([2]; validation standard 2xLLOV): 106.1% | Autosampler (72h, 4°C) Accuracy [%] ([2]; validation standard 2xLLOV): 106.1% | Autosampler (24h, 4°C) Accuracy [%] ([2]; validation standard MOV): 106.1% | Autosampler (72h, 4°C) Accuracy [%] ([2]; validation standard MOV): 102.3% | Autosampler (24h, 4°C) Accuracy [%] ([2]; validation standard ULOV): 101.9% | Autosampler (72h, 4°C) Accuracy [%] ([2]; validation standard ULOV): 102.0% | Short-time stability (1h, 56°C) Accuracy [%] [3]: 30.7% | Short-time stability (24h, 4°C, without daylight) Accuracy [%] [3]: 95.7% | Short-time stability (24h, RT, with daylight) Accuracy [%] [3]: 89.6% | Short-time stability (24h, RT, without daylight) Accuracy [%] [3]: 91.7% | Long-term stability, 1 month, -20°C Accuracy [%] ([4]; both): 96.0% | Long-term stability, 1 month, -80°C Accuracy [%] ([4]; both): 92.6% | Long-term stability, 2 month, -20°C Accuracy [%] ([4]; both): 87.7% | Long-term stability, 2 month, -80°C Accuracy [%] ([4]; both): 99.1% | Long-term stability, 3 month, -20°C Accuracy [%] ([4]; both): 91.3% | Long-term stability, 3 month, -80°C Accuracy [%] ([4]; both): 96.8% | Long-term stability, 6 weeks, 4°C, without daylight Accuracy [%] [4]: 83.5% | cmin [5]: 34 ng/mL | Long-term stability, 1 month, -20°C Accuracy [%] ([6]; validation standard 2xLLOV): 99.2% | Long-term stability, 1 month, -80°C Accuracy [%] ([6]; validation standard 2xLLOV): 94.7% | Long-term stability, 2 month, -20°C Accuracy [%] ([6]; validation standard 2xLLOV): 95.8% | Long-term stability, 2 month, -80°C Accuracy [%] ([6]; validation standard 2xLLOV): 97.8% | Long-term stability, 3 month, -20°C Accuracy [%] ([6]; validation standard 2xLLOV): 93.4% | Long-term stability, 3 month, -80°C Accuracy [%] ([6]; validation standard 2xLLOV): 98.9% | Long-term stability, 6 weeks, 4°C, without daylight Accuracy [%] ([6]; validation standard 2xLLOV): 91.7% | Long-term stability, 1 month, -20°C Accuracy [%] ([6]; validation standard MOV): 92.3% | Long-term stability, 1 month, -80°C Accuracy [%] ([6]; validation standard MOV): 93.7% | Long-term stability, 2 month, -20°C Accuracy [%] ([6]; validation standard MOV): 99.2% | Long-term stability, 2 month, -80°C Accuracy [%] ([6]; validation standard MOV): 101.1% | Long-term stability, 3 month, -20°C Accuracy [%] ([6]; validation standard MOV): 95.0% | Long-term stability, 3 month, -80°C Accuracy [%] ([6]; validation standard MOV): 95.3% | Long-term stability, 6 weeks, 4°C, without daylight Accuracy [%] ([6]; validation standard MOV): 97.9% | Long-term stability, 1 month, -20°C Accuracy [%] ([6]; validation standard ULOV): 95.0% | Long-term stability, 1 month, -80°C Accuracy [%] ([6]; validation standard ULOV): 90.8% | Long-term stability, 2 month, -20°C Accuracy [%] ([6]; validation standard ULOV): 97.0% | Long-term stability, 2 month, -80°C Accuracy [%] ([6]; validation standard ULOV): 100.1% | Long-term stability, 3 month, -20°C Accuracy [%] ([6]; validation standard ULOV): 93.8% | Long-term stability, 3 month, -80°C Accuracy [%] ([6]; validation standard ULOV): 93.5% | Long-term stability, 6 weeks, 4°C, without daylight Accuracy [%] ([6]; validation standard ULOV): 89.4% | Short-time stability (1h, 56°C) Accuracy [%] ([7]; validation standard 2xLLOV): 48.3% | Short-time stability (24h, 4°C, without daylight) Accuracy [%] ([7]; validation standard 2xLLOV): 96.6% | Short-time stability (24h, RT, with daylight) Accuracy [%] ([7]; validation standard 2xLLOV): 98.7% | Short-time stability (24h, RT, without daylight) Accuracy [%] ([7]; validation standard 2xLLOV): 98.1% | Short-time stability (1h, 56°C) Accuracy [%] ([7]; validation standard MOV): 50.8% | Short-time stability (24h, 4°C, without daylight) Accuracy [%] ([7]; validation standard MOV): 100.1% | Short-time stability (24h, RT, with daylight) Accuracy [%] ([7]; validation standard MOV): 99.8% | Short-time stability (24h, RT, without daylight) Accuracy [%] ([7]; validation standard MOV): 102.6% | Short-time stability (1h, 56°C) Accuracy [%] ([7]; validation standard ULOV): 43.1% | Short-time stability (24h, 4°C, without daylight) Accuracy [%] ([7]; validation standard ULOV): 93.3% | Short-time stability (24h, RT, with daylight) Accuracy [%] ([7]; validation standard ULOV): 97.8% | Short-time stability (24h, RT, without daylight) Accuracy [%] ([7]; validation standard ULOV): 98.9%

Cn1cnc2c(F)c(Nc3ccc(Br)cc3F)c(C(=O)NOCCO)cc21 [Binimetinib]
Freeze-Thaw Accuracy [%] ([1]; validation standard 2xLLOV): 92.6% | Freeze-Thaw Accuracy [%] ([1]; validation standard LLOV): 93.8% | Freeze-Thaw Accuracy [%] ([1]; validation standard MOV): 100.1% | Freeze-Thaw Accuracy [%] ([1]; validation standard ULOV): 105.2% | Autosampler (24h, 4°C) Accuracy [%] ([2]; validation standard 2xLLOV): 104.7% | Autosampler (72h, 4°C) Accuracy [%] ([2]; validation standard 2xLLOV): 101.6% | Autosampler (24h, 4°C) Accuracy [%] ([2]; validation standard LLOV): 103.1% | Autosampler (72h, 4°C) Accuracy [%] ([2]; validation standard LLOV): 98.1% | Autosampler (24h, 4°C) Accuracy [%] ([2]; validation standard MOV): 105.0% | Autosampler (72h, 4°C) Accuracy [%] ([2]; validation standard MOV): 95.8% | Autosampler (24h, 4°C) Accuracy [%] ([2]; validation standard ULOV): 102.1% | Autosampler (72h, 4°C) Accuracy [%] ([2]; validation standard ULOV): 102.4% | cmin [5]: 53.3 ng/mL | Long-term stability, 1 month, -20°C Accuracy [%] ([6]; validation standard 2xLLOV): 94.8% | Long-term stability, 1 month, -80°C Accuracy [%] ([6]; validation standard 2xLLOV): 97.4% | Long-term stability, 2 month, -20°C Accuracy [%] ([6]; validation standard 2xLLOV): 105.7% | Long-term stability, 2 month, -80°C Accuracy [%] ([6]; validation standard 2xLLOV): 106.4% | Long-term stability, 3 month, -20°C Accuracy [%] ([6]; validation standard 2xLLOV): 99.5% | Long-term stability, 3 month, -80°C Accuracy [%] ([6]; validation standard 2xLLOV): 104.4% | Long-term stability, 6 weeks, 4°C, without daylight Accuracy [%] ([6]; validation standard 2xLLOV): 95.3% | Long-term stability, 1 month, -20°C Accuracy [%] ([6]; validation standard LLOV): 103.4% | Long-term stability, 1 month, -80°C Accuracy [%] ([6]; validation standard LLOV): 106.3% | Long-term stability, 2 month, -20°C Accuracy [%] ([6]; validation standard LLOV): 116.3% | Long-term stability, 2 month, -80°C Accuracy [%] ([6]; validation standard LLOV): 124.3% | Long-term stability, 3 month, -20°C Accuracy [%] ([6]; validation standard LLOV): 105.4% | Long-term stability, 3 month, -80°C Accuracy [%] ([6]; validation standard LLOV): 104.6% | Long-term stability, 6 weeks, 4°C, without daylight Accuracy [%] ([6]; validation standard LLOV): 104.1% | Long-term stability, 1 month, -20°C Accuracy [%] ([6]; validation standard MOV): 92.3% | Long-term stability, 1 month, -80°C Accuracy [%] ([6]; validation standard MOV): 94.4% | Long-term stability, 2 month, -20°C Accuracy [%] ([6]; validation standard MOV): 95.9% | Long-term stability, 2 month, -80°C Accuracy [%] ([6]; validation standard MOV): 96.6% | Long-term stability, 3 month, -20°C Accuracy [%] ([6]; validation standard MOV): 97.9% | Long-term stability, 3 month, -80°C Accuracy [%] ([6]; validation standard MOV): 98.7% | Long-term stability, 6 weeks, 4°C, without daylight Accuracy [%] ([6]; validation standard MOV): 109.9% | Long-term stability, 1 month, -20°C Accuracy [%] ([6]; validation standard ULOV): 99.6% | Long-term stability, 1 month, -80°C Accuracy [%] ([6]; validation standard ULOV): 97.2% | Long-term stability, 2 month, -20°C Accuracy [%] ([6]; validation standard ULOV): 99.2% | Long-term stability, 2 month, -80°C Accuracy [%] ([6]; validation standard ULOV): 101.1% | Long-term stability, 3 month, -20°C Accuracy [%] ([6]; validation standard ULOV): 98.9% | Long-term stability, 3 month, -80°C Accuracy [%] ([6]; validation standard ULOV): 102.6% | Long-term stability, 6 weeks, 4°C, without daylight Accuracy [%] ([6]; validation standard ULOV): 99.7% | Short-time stability (1h, 56°C) Accuracy [%] ([7]; validation standard 2xLLOV): 55.9% | Short-time stability (24h, 4°C, without daylight) Accuracy [%] ([7]; validation standard 2xLLOV): 105.5% | Short-time stability (24h, RT, with daylight) Accuracy [%] ([7]; validation standard 2xLLOV): 89.3% | Short-time stability (24h, RT, without daylight) Accuracy [%] ([7]; validation standard 2xLLOV): 86.4% | Short-time stability (1h, 56°C) Accuracy [%] ([7]; validation standard LLOV): 68.1% | Short-time stability (24h, 4°C, without daylight) Accuracy [%] ([7]; validation standard LLOV): 117.1% | Short-time stability (24h, RT, with daylight) Accuracy [%] ([7]; validation standard LLOV): 111.6% | Short-time stability (24h, RT, without daylight) Accuracy [%] ([7]; validation standard LLOV): 106.0% | Short-time stability (1h, 56°C) Accuracy [%] ([7]; validation standard MOV): 42.6% | Short-time stability (24h, 4°C, without daylight) Accuracy [%] ([7]; validation standard MOV): 94.8% | Short-time stability (24h, RT, with daylight) Accuracy [%] ([7]; validation standard MOV): 86.5% | Short-time stability (24h, RT, without daylight) Accuracy [%] ([7]; validation standard MOV): 89.2% | Short-time stability (1h, 56°C) Accuracy [%] ([7]; validation standard ULOV): 36.7% | Short-time stability (24h, 4°C, without daylight) Accuracy [%] ([7]; validation standard ULOV): 96.8% | Short-time stability (24h, RT, with daylight) Accuracy [%] ([7]; validation standard ULOV): 101.8% | Short-time stability (24h, RT, without daylight) Accuracy [%] ([7]; validation standard ULOV): 97.3%
